The values that follow come from patent US7091351B2, “Vanadium compounds for treating cancer” (Parker Hughes Institute, priority 1998, dated 2006).

Holding throughout (assay type): cell-based, human
Data set [1] relates to Tera-2 testicular cancer cells. Nature of the data set: Cytotoxic activity of oxovanadium(IV) compounds, TERA-2. The note with it: read-out: Cytotoxic Activity TERA-2. The method in brief: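 Exponentially growing cells seeded at 4×10^4 cells/well were exposed to compounds at 0.1–250 μM for 48 hours at 37° C, in triplicate. MTT viability was read at 540/690 nm, converted to live cell number via per-line standard curves, and expressed as % survival versus control. IC50 came from non-linear regression.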

Another data set has as its system NALM-6 cells. Nature of the data set: In situ detection of apoptosis, confocal microscopy, NALM-6. The note with it: 48 hours after treatment. The protocol:
Exponentially growing cells were seeded in 6-well tissue culture plates and incubated with fresh medium containing compounds. […] The cells were fixed in 2% paraformaldehyde, washed with PBS and pelleted by centrifuging the tubes at 1000 rpm for 5 min. Cells pellets were resuspended in 50 μl of PBS, transferred to superforst plus slides and allowed to attach for 15 min. The cells were permeabilized with 0.1% triton X-100 in 0.1% citrate buffer and incubated for 1 hr at 37° C. with the reaction mixture containing terminal deoxynucleotidyl transferase (TdT) and fluorescein isothiocyanate (FITC)-conjugated dUTP. Cells were washed with PBS to remove unbound reagents and the coverslips were mounted onto slides with Vectashield containing propidium iodide (Vector Labs, Burlingame, Calif.) and slides were viewed with a confocal laser scanning microscope. […] In control reactions, the TdT enzyme was omitted from the reaction mixture.

Data set [2] deals with Tera-2 testicular cancer cells. Nature of the data set: MTT cytotoxicity assay of vanadocenes, TERA-2 cells. The note with it: 24 h, 1.9-250 μM. The method, boiled down:
(§1)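 IC50 values come from MTT colorimetry (540 nm) after 24 h drug treatment at 1.9–250 μM in two-fold steps, started 24 h post-seeding. Formazan formed over 4 h at 37 °C and was solubilized overnight in 10% SDS/0.1% HCl; triplicate wells, 0.25% DMSO solvent control.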
On the technique in general: Formazan colour is commonly taken as a measure of viable cells.

A further data set has as its system U373 glioblastoma cells. Nature of the data set: MTT cytotoxicity assay of vanadocenes, U373 cells. The note with it: 24 h. The method in brief:
as §1

Several values for one entry are separate records, joined by “and”; a condition that tells them apart may be missing. Equal entries are not always repeated.

Turning to “bis(4,7-dimethyl-1,10-phenanthroline)sulfatooxovanadium(IV) [Compound 29]”, the IC50 in data set [1] worked out at 19.5 µM. Further, the “apoptotic nuclei (FITC-dUTP / propidium iodide), NALM-6” value with NALM-6 cells is “many apoptotic yellow nuclei”.

On to `[Cl-].[Cl-].[V+4].c1cc[cH-]c1.c1cc[cH-]c1` [VDC, VCp2Cl2], for which the IC50 in data set [2] is 80.6 µM and 81 µM; in the data set with U373 glioblastoma cells, 42 µM.
